As usually defined, the zone of inhibition is the size of the clear area around the sample on an inoculated plate.

The record followed here is patent publication US4348264A, “Photocatalyzed process for producing carbapenams and carbapen-2-ems” (Pfizer Inc., priority 1981, dated 1982).

Common to all, as to format: cell-based
One assay deals with Citrobacter diversus. As to the kind of experiment: Serial dilution-tube method, MIC. Conditions: Citrobacter koseri; brain heart infusion broth; read-out: Minimum Inhibitory Concentration.
Another assay concerns Pseudomonas aeruginosa. As to the kind of experiment: Serial dilution-tube method, MIC. The following applies: Pseudomonas aeruginosa; brain heart infusion broth; read-out: Minimum Inhibitory Concentration.
Assay [1] deals with Staphylococcus aureus. Kind of assay: Serial dilution-tube method, MIC. The following applies: Staphylococcus aureus; brain heart infusion broth; read-out: Minimum Inhibitory Concentration.
The test system of assay [2] is Escherichia coli. Kind of assay: Serial dilution-tube method, MIC. The following applies: Escherichia coli; brain heart infusion broth; read-out: Minimum Inhibitory Concentration.
A further assay concerns Enterobacter cloacae. As to the kind of experiment: Serial dilution-tube method, MIC. Conditions: Enterobacter cloacae; brain heart infusion broth; read-out: Minimum Inhibitory Concentration.
The subject of the next assay is Klebsiella pneumoniae. As to the kind of experiment: Serial dilution-tube method, MIC. Conditions: Klebsiella pneumoniae; brain heart infusion broth; read-out: Minimum Inhibitory Concentration.
In a further assay the test system is Proteus morgani. Kind of assay: Serial dilution-tube method, MIC. The following applies: brain heart infusion broth; read-out: Minimum Inhibitory Concentration.
For another assay, the system named is Serratia marcescens. Kind of assay: Serial dilution-tube method, MIC. Conditions: Serratia marcescens; brain heart infusion broth; read-out: Minimum Inhibitory Concentration.
Assay [3] deals with Staphylococcus aureus (Antibiotic Resistant). Kind of assay: Serial dilution-tube method, MIC. Set-up: key to synergistic effect with ampicillin: Shows a synergistic effect when tested 1:1 with ampicillin. Conditions: for MIC: Staphylococcus aureus, brain heart infusion broth, read-out: Minimum Inhibitory Concentration; for synergistic effect with ampicillin: tested 1:1 with ampicillin.

The test system of assay [4] is Escherichia coli (Antibiotic Resistant). As to the kind of experiment: Serial dilution-tube method, MIC. The following applies: Escherichia coli, brain heart infusion broth, read-out: Minimum Inhibitory Concentration.
In assay [5] the test system is Staphylococcus aureus (Antibiotic Resistant). As to the kind of experiment: Standard disc-plate method, zone of inhibition. Conditions: Staphylococcus aureus; 25 microgram discs; antibiotic resistant. The text has this: (§1) The utility of the various compounds as intermediates to other compounds of the present invention will be evident from the preceding discussion. The antibacterial activity of these compounds, reflecting their utility in the control of susceptible bacterial infections in man and animals, as animal feed additives for promotion of growth, or as preservatives of materials biodegraded by susceptible microorganisms, is best measured by the standard disc-plate method routinely employed in clinical laboratories for determining the sensitivity of microorganisms to antimicrobial substances. Sensitivity discs are prepared by dipping a standard 6.25 mm. paper disc into a solution of the compound to be tested (conc. 1 mg./ml.) in a volatile solvent (e.g. methylene chloride) and the disc dried, producing discs containing approximately 25 microg. of the compound. The discs are placed on the surface of agar growth media seeded with the test microorganism, previously plated into Petri dishes. The plates are incubated overnight at 35°-37° C. Activity of the test compound is reflected by a zone of inhibition of bacterial growth around the test disc. The diameter of this zone provides a quantitative measure of the activity of the antibacterial substance. The activity of various compounds of the present invention is summarized in Table I. For comparison, results obtained with 10 microg. discs of ampicillin and penicillin G are included as positive controls.

Assay [6] deals with Escherichia coli. As to the kind of experiment: Standard disc-plate method, zone of inhibition. The following applies: Escherichia coli, 25 microgram discs.
Description: as §1

The next assay relates to Bacillus subtilis. Kind of assay: Standard disc-plate method, zone of inhibition. The following applies: Bacillus subtilis; 25 microgram discs.
Description: as §1

For assay [7], the system named is Staphylococcus aureus. Kind of assay: Standard disc-plate method, zone of inhibition. The following applies: Staphylococcus aureus; 25 microgram discs.
Description: as §1

Another assay deals with Vibrio percolans. Kind of assay: Standard disc-plate method, zone of inhibition. The following applies: Comamonas terrigena, 25 microgram discs.
Description: as §1

In the next assay the test system is Micrococcus luteus. As to the kind of experiment: Standard disc-plate method, zone of inhibition. Conditions: Micrococcus luteus; 25 microgram discs.
Description: as §1

Values after ≈ are worked out from the molar mass of the structure shown. Some results are limits rather than exact numbers.

For the compound `CCN1CCN(C(=O)N[C@@H](C(=O)NC2C(=O)N3C(C(=O)OCOC(=O)C(C)(C)C)C(C)C(O)C23)c2ccccc2)C(=O)C1=O` (some centres unmarked) [EPA H POM CH3 H OH I, Pivaloyloxymethyl 1-Hydroxy-2-methyl-6-[2-phenyl-2-(4-ethyl-2,3-dioxopiperazine-1-carboxamido)acetamido]carbapenam-3-carboxylate], the MIC stood at 12.5 mg/L (≈ 20.3 µM) in the assay with Citrobacter diversus; 200 mg/L (≈ 325 µM) in the assay with Pseudomonas aeruginosa; 25 mg/L (≈ 40.6 µM) in the assay with Staphylococcus aureus [1]; 6.25 mg/L with Escherichia coli [2]; 12.5 mg/L (≈ 20.3 µM) with Enterobacter cloacae; 12.5 mg/L (≈ 20.3 µM) in the assay with Klebsiella pneumoniae. The MIC is at most 0.39 mg/L with Proteus morgani, 25 mg/L (≈ 40.6 µM) in the assay with Serratia marcescens, over 200 mg/L in [3] and over 200 mg/L in assay [4]. For the same compound, the zone of inhibition at 25 µg/disc in assay [5] was found to be 10 mm; in the assay with Escherichia coli [6], 20 mm; in the assay with Bacillus subtilis it was 17 mm; with Staphylococcus aureus [7] it was 18 mm; in the assay on Vibrio percolans, 24 mm.
Consider `COC1(NC(=O)COc2ccccc2)C(=O)N2C(C(=O)OCOC(=O)C(C)(C)C)C(C)C(=O)C21` (centres unmarked) [PMA OMe POM CH3 O I, Pivaloyloxymethyl 6-Methoxy-2-methyl-1-oxo-6-(2-phenoxyacetamido)carbapenam-3-carboxylate], for which the MIC with Citrobacter diversus, in the assay with Pseudomonas aeruginosa, with Staphylococcus aureus [1], in the assay with Escherichia coli [2], in the assay on Enterobacter cloacae and in the assay on Klebsiella pneumoniae was over 200 mg/L in each case. In addition, the MIC (in the assay with Proteus morgani; in the assay with Serratia marcescens; in assay [3]; in [4]) was over 200 mg/L in each case. Also, the “synergistic effect with ampicillin” value in [3] is given as “a”. The zone of inhibition at 25 µg/disc was 0 mm in assay [5]; 0 mm in the assay with Escherichia coli [6]; 11 mm in the assay with Bacillus subtilis; 0 mm in the assay on Staphylococcus aureus [7]; 0 mm in the assay on Vibrio percolans.
With `CC1C(O)C2C(NC(=O)COc3ccccc3)C(=O)N2C1C(=O)OCOC(=O)C(C)(C)C` (centres unmarked) [PMA H POM CH3 H OH I, Pivaloyloxymethyl 1-Hydroxy-2-methyl-6-(2-phenoxyacetamido)carbapenam-3-carboxylate], the MIC in the assay on Citrobacter diversus is over 200 mg/L; in the assay with Pseudomonas aeruginosa, over 200 mg/L; in the assay on Staphylococcus aureus [1], 25 mg/L (≈ 55.7 µM); in the assay with Escherichia coli [2] it was over 200 mg/L; in the assay with Enterobacter cloacae, over 200 mg/L; in the assay with Klebsiella pneumoniae, over 200 mg/L. In addition, the MIC with Proteus morgani was over 200 mg/L; in the assay on Serratia marcescens it was over 200 mg/L; in assay [3] it was 200 mg/L; in assay [4], over 200 mg/L. In assay [3], the “synergistic effect with ampicillin” value was “a”. For the same compound, the zone of inhibition at 25 µg/disc was found to be 17 mm in assay [5]; 0 mm with Escherichia coli [6]; 23 mm with Bacillus subtilis; 14 mm with Micrococcus luteus; 20 mm in the assay with Staphylococcus aureus [7].
Regarding `CC(=O)OC1C(C)C(C(=O)OCOC(=O)C(C)(C)C)N2C(=O)C(NC(=O)COc3ccccc3)C12` (centres unmarked) [PMA H POM CH3 H OAc I, Pivaloyloxymethyl 1-Acetoxy-2-methyl-6-(2-phenoxyacetamido)carbapenam-3-carboxylate], the MIC in the assay with Citrobacter diversus, in the assay with Pseudomonas aeruginosa, in the assay on Staphylococcus aureus [1], in the assay on Escherichia coli [2], with Enterobacter cloacae and in the assay on Klebsiella pneumoniae was over 200 mg/L throughout. The MIC (in the assay on Proteus morgani; in the assay on Serratia marcescens; in assay [3]; in [4]) was over 200 mg/L in each case. The zone of inhibition at 25 µg/disc in assay [5] is 0 mm; in the assay on Escherichia coli [6], 0 mm; with Bacillus subtilis, 16 mm; in the assay on Micrococcus luteus it was 0 mm; in the assay on Staphylococcus aureus [7], 11 mm.
